Assay [1] deals with phospho-SMAD 1/5/8 in human fetal neurospheres expressing mutant APP. Nature of the assay: phospho-SMAD 1/5/8 immunofluorescence staining in neurospheres treated with BMP receptor inhibitor. Conditions: neurospheres treated for 1 week, different doses; FIGS. 5B and C. The class given is cell-based. The source says:
(§1) A human fetal neural stem cell line from University of California Irvine was developed from fetal neural tissue at 18 week gestational age enriched for CD133+ cells. The use of neural progenitor cells as non-hESC stem cells in this study is compliant to Stanford Stem Cell Research Oversight (SCRO) Protocol 194 pre-approved by the Internal Review Board (IRB)/SCRO of the Stanford Research Compliance Office (RCO). Informed consent was obtained, and standard material transfer agreement signed. Cells were grown in nonadherent ultra-low attachment well plates in X-VIVO 15 media (LONZA) supplemented with LIF (10 ng/ml), N2 Supplement, N-acetylcysteine (63 ug/ml), Heparin (2 ug/ml), EGF (20 ng/ml), and FGF (20 ng/ml).
(§2) cDNA for mutant APP harboring the Swedish and Indiana mutations was cloned into a pHIV-Zsgreen backbone obtained from Addgene. Lipofectamine 2000 was used to transduce the construct (either pHIV-Zsgreen+mutant APP or pHIV-Zsgreen alone) into H293T cells and media was collected after 48 hours. Virus was ultra-centrifuged and resuspended in PBS then titered before infecting human fetal neurospheres.
Neurospheres were cytospun onto slides and fixed in ice-cold methanol for 5 minutes. Slides were rinsed 3 times in phosphate-buffered saline (PBS) at room temperature, followed by blocking in 3% BSA in PBS for 1 hour at room temperature. […]

Assay [2] has as its system Zsgreen control neurospheres. Nature of the assay: Colony counts of Zsgreen-infected control human fetal neurospheres after 1 week of treatment. Conditions: 1 week treatment; FIG. 5E. The class given is cell-based.
Description: as §1, §2
Human neurospheres were dissociated into single cells and infected with either a lentiviral construct containing pHIV-Zsgreen+mutant APP or pHIV-Zsgreen alone and allowed to grow for a week. […] Colonies were counted after 7 days.

Regarding `c1ccc2c(-c3cnn4cc(-c5ccc(N6CCNCC6)cc5)cnc34)ccnc2c1` [LDN-193189], the “pSMAD 1/5/8 level after treatment” value in assay [1] is “substantially decreased”. Besides, the “impact on Zsgreen control neurosphere growth” value in assay [2] is listed as “minimal impact”.
